According to PMC11435220, “Anticancer Activity of Imidazolyl Gold(I/III) Compounds in Non-Small Cell Lung Cancer Cell Lines” (Pharmaceuticals, 2024):
Where two headings read alike, the source gives them in different places.

How the values were obtained:
[1] = test system: human NSCLC cell lines without KRAS mutations; assay: MTT assay, average across NSCLC cell lines without KRAS mutations; type: cell-based; settings: average across cell lines without KRAS mutations (H522, H661, H1395, H1993), 48 h, read-out: IC50 * averaged values
Procedure: (§1) NSCLC cell lines were obtained from the Hamon Center for Therapeutic Oncology Research (UT Southwestern Medical Center). IMR-90 human lung fibroblasts were from ATCC (CC-186). All cell lines were maintained and treated in RPMI medium (Cytiva (Shanghai, China), #SH30027), supplemented with 10% heat-inactivated FBS (Millipore Sigma (Darmstadt, Germany), F0394).
(§2) 5000–10,000 cells/0.1 mL/well were seeded in 96-well plates to achieve 70% confluence after 24 h. All drug stock solutions were prepared fresh in DMSO at a concentration of 10 mM. The day after cell plating, we added 0.1 mL of medium containing the appropriate drug dilutions. After 48 h of treatment, 10 μL of MTT solution (5 mg/mL) was added to each well. After 4 h incubation, the medium was aspirated, and the formazan salts dissolved in 200 μL DMSO/well for 10 min at 37 °C. The absorbance was read at 570 nm (OD 570 nm). Data are represented as mean ± SD of two independent experiments.
(§3) Statistical and data analysis was performed using GraphPad Prism (v10). IC50 values were calculated using a three-parameter non-linear regression model with log(inhibitor) vs. response. For the TxrR activity statistics, the groups were compared using a two-way ANOVA followed by Dunnett’s multiple comparisons with alpha = 0.05. The correlation between IC50 values and TxrR activity was achieved using Pearson correlation with alpha = 0.05.

[2] = test system: H157; assay: MTT viability assay, H157; type: cell-based, human; settings: mean ± span, 48 h treatment, cell line with KRAS mutation
Procedure: as §1, §2, §3

[3] = test system: H1792; assay: MTT viability assay, H1792; type: cell-based, human; settings: mean ± span, 48 h treatment, cell line with KRAS mutation
Procedure: as §1, §2, §3

[4] = molecular target: T1, recombinant human DHFR (hDHFR) (Homo sapiens, UniProt P00374); assay: Cell-free human dihydrofolate reductase enzymatic activity; type: biochemical; settings: for effect on hDHFR enzymatic activity: H2F sub-saturating (~20 µM) and close to Km (~3 µM)
T1 construct: made in house; host or cells: E. coli BL21, plasmid pET17b (gift of C. Robert Matthews)
T1 sequence (P00374 1-187): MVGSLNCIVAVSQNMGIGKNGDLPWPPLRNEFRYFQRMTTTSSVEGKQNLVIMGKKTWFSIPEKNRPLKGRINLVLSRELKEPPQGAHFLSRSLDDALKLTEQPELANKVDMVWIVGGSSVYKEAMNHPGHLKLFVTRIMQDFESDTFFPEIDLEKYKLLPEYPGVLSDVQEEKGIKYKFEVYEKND
Procedure: Recombinant human DHFR was overexpressed and purified from pET17b (+) encoding the hDHFR gene/BL21 (Novagene® (Hong Kong, China)) E. coli cells as described in the literature. The protein purity was verified as a single band in Coomassie-stained SDS-PAGE. The concentration of the hDHFR was measured spectrophotometrically at 280 nm using the extinction coefficient of 28,400 M^−1 cm^−1 and resulted to be equal to 14 µM. The activity of the DHFR was followed by recording the absorbance over time at 340 nm in a UV-VIS spectrophotometer Shimadzu UV-2450. The procedure consisted of mixing the 50 mM Hepes buffer (pH 7.3) with saturating concentration NADPH ([…]) and […] hDHFR, incubating at 37 °C for 5 min, and starting the reaction by adding H2F at various concentrations. When testing the inhibition capacity of gold complexes, the reaction mixture was prepared by adding increasing concentrations of the tested compounds before the incubation at 37 °C. Since the gold complexes were solubilized in 100% methanol (HPLC-grade, Carlo Erba), the enzymatic activity of hDHFR was also assessed in the presence of the equal volumes of MeOH used in the assays with the gold complexes and eventually subtracted. Data are represented as mean ± SEM of 2 independent experiments and analyzed according to best-fit models using GraphPad Prism (v10).
For the data analysis of hDHFR enzymatic activity, the sigmoidal non-linear fitting model in the GraphPad Prism (v10) was used, in which the concentration of inhibitor was expressed as concentrations: Y = Bottom + (Top − Bottom)/(1 + (IC50/X)^HillSlope). Figures were partially prepared with BioRender (https://app.biorender.com) accessed on 25 July 2024).

[5] = test system: TrxR in H522 cell lysates; assay: Thioredoxin reductase activity in lysates of treated H522 cells; type: cell-based, human; settings: for Mean Diff. TrxR activity vs. veh: H522 lysate, 24 h treatment at 5 μM
Procedure: (§4) The enzymatic activity of TrxR in the A549 and H522 cell lysates was measured using the TrxR assay Kit (Abcam ab83463) following the manufacturer’s instructions. This kit is based on the TxrR-mediated reduction of the colorless DTNB into TNB2—(yellow). Briefly, cells were plated to reach 70% confluence on a 100-mm dish in one day. They were treated with 5 μM of the gold compounds or the equivalent quantity of DMSO for 24 h. Then, cells were washed in PBS 1X, detached, and lysed in 100 μL of cold TrxR assay buffer supplemented with the Proteinase Inhibitor Cocktail. 20 μg and 40 μg of total proteins were used for the A549 and the H522, respectively. The DTNB substrate was added to samples with or without TrxR inhibitor (provided with the kit) in 96-well plates. The OD412 was measured soon after the substrate addition (A1) and then after 25, 60, 90, and 110 min (An) at 25 °C using a FLUOstar Omega Microplate Reader (BGM Labtech, Chicago, IL, USA). Data analysis was performed following the manufacturer’s instructions. The OD of TNB2, generated by TrxR in every condition, is:ΔA412 nm = (AnAB − AnINH) − (AB − A1INH) where AB is the assay buffer, and INH is the inhibitor. The TrxR activity is:(2) ΔB/Tn−T1×mg of protein lysate×sample dilution factor=(nmol/min)/mg=mU/mg where ΔB is the TNB amount calculated applying ΔA412 nm to TNB standard curve (in nmol), T1 is the time of the first reading (A1AB, and A1INH) (in min), Tn is the time of the second reading (AnAB and AnINH) (in min). The residual TxrR activity (%) was calculated by normalizing the TxrR activity for each compound with the matching vehicle values at every n time point.
as §3

[6] = test system: H460; assay: MTT viability assay, H460; type: cell-based, human; settings: mean ± span, 48 h treatment, cell line with KRAS mutation
Procedure: as §1, §2, §3

[7] = test system: TrxR in A549 cell lysates; assay: Thioredoxin reductase activity in lysates of treated A549 cells; type: cell-based, human; settings: for Mean Diff. TrxR activity vs. veh: A549 lysate, 24 h treatment at 5 μM
Procedure: as §4, §3

[8] = test system: human NSCLC cell lines with KRAS mutations; assay: MTT assay, average across NSCLC cell lines with KRAS mutations; type: cell-based; settings: 48 h, read-out: IC50 * averaged values
Procedure: as §1, §2, §3

Row | SMILES | IC50 [1] | IC50 [2] | IC50 [3] | effect on hDHFR enzymatic activity [4] | Mean Diff. TrxR activity vs. veh ([5]; reading at 25 min) | Mean Diff. TrxR activity vs. veh ([5]; reading at 60 min) | Mean Diff. TrxR activity vs. veh ([5]; reading at 90 min) | Mean Diff. TrxR activity vs. veh ([5]; reading at 110 min) | IC50 [6] | Mean Diff. TrxR activity vs. veh ([7]; reading at 25 min) | Mean Diff. TrxR activity vs. veh ([7]; reading at 60 min) | Mean Diff. TrxR activity vs. veh ([7]; reading at 90 min) | Mean Diff. TrxR activity vs. veh ([7]; reading at 110 min) | IC50 [8] | further results
1 | Clc1n[c]([Au-][P+](c2ccccc2)(c2ccccc2)c2ccccc2)n(Cc2ccccc2)c1Cl [Compound 7] | 4 µM | 8.5 ± 1.2 µM | 12 ± 1.04 µM | very little effect on the enzymatic activity | −57.19% | −91.41% | −90.61% | −89.86% | 6.6 ± 1.02 µM | −59.2% | −44.4% | −56.35% | −53.76% | 10 µM | magnitude of inhibition, hDHFR ([4]; H2F concentration 3.47 µM): ~ 50%; IC50 ([4]; H2F concentration 3.47 µM, read-out: hDHFR IC50): 10.9 ± 9.77 µM; magnitude of inhibition, hDHFR ([4]; H2F concentration 21.0 µM): ~ 50%; IC50 ([4]; H2F concentration 21.0 µM, read-out: hDHFR IC50): 23.6 ± 20.7 µM
2 | Cn1cc[n+](C)[c]1[Au-2]([Cl])[P+](c1ccccc1)(c1ccccc1)c1ccccc1 [Compound 8] | 3 µM | 17 ± 1.2 µM | 15 ± 1.1 µM | important inhibitory function | −81.92% | −82.1% | −91.89% | −88.27% | 13 ± 1.4 µM | −86.87% | −80.79% | −82.25% | −82.25% | 11 µM | IC50 ([4]; H2F concentration 3.89 µM, sigmoidal fit, read-out: hDHFR IC50): 15 ± 1.25 µM; IC50 ([4]; H2F concentration 22.6 µM, sigmoidal fit, read-out: hDHFR IC50): 14.8 ± 1.25 µM; reduction of the enzymatic activity of hDHFR (conclusions) ([4]; dihydrofolate concentration comparable with the Km): 80%; IC50 ([4]; dihydrofolate concentration comparable with the Km, read-out: hDHFR IC50 (conclusions)): ~15 µM; TrxR activity reduction / inhibition ([5]; H522, 24 h treatment, stated for both cell lines): more than 80%; TrxR activity reduction / inhibition ([7]; A549, 24 h treatment, stated for both cell lines): more than 80%
